Results: patent US10576145B2, “CD200 inhibitors and methods of use thereof” (REGENTS OF THE UNIVERSITY OF MINNESOTA, priority 2014, dated 2020)
“Also recorded” adds a separate entry of the source.

Assays:
[1] = test system: GL261 tumor bearing mice; experiment: OVA+Poly:ICLC vaccination of GL261 tumor bearing mice +/- CD200R antagonist: OVA-specific CD8 T cells and recall cytokines; format: in vivo, C57BL/6 mice; conditions: for SIINFEKL-specific CD8 T cells (OVA-specific T cell expansion): blood, flow cytometry
Source text: FIGS. 2A-2B. FIG. 2A) Vaccination scheme. Tumor bearing or non-tumor bearing mice were vaccinated on day 2 and 8 with an agonist (4012) or antagonist (6059) only, and on days 3-6 and 10 with OVA+Poly:ICLC+/−the competitive inhibitor 6059 (antagonist of a agonist). FIG. 2B) Mice were bled on day 10, whole blood was stained with an anti-CD8 and SI[[N]]INFEKL (SEQ ID NO: 11) specific detramer, lysed and analyzed by flow cytometry.
FIGS. 3A-3B. Tumor bearing or non-tumor bearing mice were vaccinated on day 2 and 8 with an agonist or antagonist only, and on days 3-6 and 10 with OVA+Poly:ICLC+/−the competitive inhibitor 6059 (antagonist of a agonist). On day 10, were harvested and stimulated with OVA protein to measure a recall response via cytokine release. FIG. 3A) TNF alpha (PG/ML) levels from tumor bearing mice. FIG. 3B) INF gamma (PG/ML) levels in tumor bearing mice.
(§1) FIGS. 12A-12C. […] Tumor and non-tumor bearing mice were vaccinated with OVA+Poly:ICLC+/−the CD200R antagonist 6059 and analyzed for FIG. 12A) SIINFEKL/Kb+CD8+ T cell expansion (‘SIINFEKL’ disclosed as SEQ ID NO: 11). FIG. 12B) Lymphocytes were harvested and stimulated with SIINFEKL peptide (SEQ ID NO: 11). Supernatants were analyzed for TNFα and IFNγ secretion. FIG. 12C) The antagonist 6059 was added to OVA+exosomes. Error bars indicate +/−SEM (n=4/group; *P<0.05; by t-test). FIGS. 12A-12C discloses ‘SIINFEKL’ disclosed as SEQ ID NO: 11.
FIGS. 18A-18D. […] (FIG. 18A & FIG. 18B) Tumor bearing mice were vaccinated with OVA+Poly:ICLC+/−antagonist then analyzed for OVA-specific T cells and cytokine production following in vitro restimulation with OVA. Tumor bearing mice were vaccinated with saline (n=10), tumor lysate+CpG (n=10) or tumor lysate+CpG+antagonist 6059 (n=10). (FIG. 18C) Mice were imaged weekly for tumor growth and (FIG. 18D) followed for survival. Error bars are ±SEM, *p<0.05, ** p<0.001 was determined by one-way ANOVA, post hoc analysis by Dunn's multiple comparison test, log-rank analysis was used for survival. […]
Anti-mouse CD8α-Pacific Blue (clone 53-6.7) was purchased from eBioscience. A SIINFEKL/K^b dextramer-PE (‘SIINFEKL’ disclosed as SEQ ID NO: 11) was used for detection of SIINFEKL/K^b-binding CD8 T-cells (Immunodex) (‘SIINFEKL’ disclosed as BEQ ID NO: 11). […] A 100 μl sample of whole blood was immediately analyzed for percentage of MDSCs ((Lineage-FITC (CD3, CD14, CD16, CD19, CD20, CD56) CD33-APC, HLA-DR-PerCp)) by flow cytometry. Sera CD200 levels were determined by ELISA (Sino Biological Inc.).
Lymph nodes were homogenized in RPMI media containing 10% FBS, penicillin/streptomycin (100 U/ml), and 0.1 mg/ml Normocin (Invivogen). […] Fifty microliters of supernatant was analyzed for IFN-γ using a flow cytometric bead array according to the manufacturer's protocol (BD Biosciences).

[2] = test system: non-tumor bearing mice; experiment: Vaccination of non-tumor bearing mice with OVA + glioma-derived exosomes + antagonist; format: in vivo
Method: as §1
Whether the different antagonists described by Gorczynski et. al. (J Surg Res 2008; 145(1): 87-96) could modulate or reverse the suppressive effects of the tumor microenvironment was also investigated. It was concluded that different antagonists either act through different CD200R isoforms or have different biological effects on the same receptor. These conclusions were supported by experiments where splenocytes were pulsed with OVA+selected CD200R antagonists (6061, 6069, 4004, 4006, 4013) for 24 hours. The splenocytes were then washed and cultured for 48 hours with the addition of OT-1 T cells. The cultures were then assessed for cytokine production using a flow cytometric bead array. […] Other antagonists were similarly evaluated.

[3] = test system: naïve splenocytes exposed to GL261 cells; experiment: GL261 cells incubated with naive splenocytes in trans-well plate +/- CD200R antagonist: MDSC expansion and IFN-γ; format: cell-based, mouse
Method: FIGS. 17A-17B. CD200R antagonist blocks MDSC expansion and tumor suppressive effects. (FIG. 17A) Murine glioma GL261 was incubated with naïve splenocytes in a trans-well plate+/−CD200R antagonist and analyzed for MDSC expansion and cytokine production. (FIG. 17B) Naïve splenocytes were pulsed with purified CD200+/−CD200R antagonist and analyzed for MDSC expansion and arginase-I production. Error bars are ±SEM, statistical significance was determined by one-way ANOVA, post hoc analysis by Dunn's multiple comparison test, *p<0.05, ** p<0.001.
To determine the level of MDSC expansion when splenocytes were exposed to tumor cells, splenocytes were also harvested and purified as described above; 300,000 splenocytes were plated in the bottom of 24 well transwell plates containing a 0.4-micron filter. Following 24 hr incubation, 30,000 GL261 cells were plated on the transwell insert with and without the CD200R antagonist 6059. Total volume was 700 μl/well so that the insert was submerged in the media within the wells. Cells were incubated for 5 days, harvested, and stained with CD11b and GR-1 to determine MDSC levels. In another set of wells, OVA was added to the wells 24 hours after the splenocytes were plated. Following another 72 hr incubation, 3×10^5 purified CD8 T-cells isolated from an OT-I mouse and were added to the wells and incubated for an additional 72 hrs. […]

NTIGDGGCY [Antagonist 6059]
Suppressive effects of the tumor environment (overall statement) ([1]; prime boost model, tumor-bearing mice): reversed the suppressive effects in tumor-bearing mice; also recorded: reverses the suppressive effects of the tumor environment; also recorded: blocks CD200 induced immune suppression | SIINFEKL-specific CD8 T cells (OVA-specific T cell expansion) ([1]; tumor bearing mice, OVA+Poly:ICLC +/- antagonist): reversed tumor induced suppression; also recorded: increased numbers of SIINFEKL-specific CD8 T-cells; also recorded: reversed the suppressive effects of the tumor microenvironment | SIINFEKL-specific CD8 T cells (OVA-specific T cell expansion) ([1]; tumor bearing mice, OVA+Poly:ICLC +/- antagonist, listed as CD200 antagonist): significantly enhanced the expansion of a SIINFEKL/CD8 T cell population | TNFα and IFNγ production after restimulation of cervical lymph node lymphocytes (recall response) ([1]; tumor bearing mice, OVA+Poly:ICLC +/- antagonist, restimulation with OVA/SIINFEKL, 48 hrs): modulate/reverse glioma-induced suppression; also recorded: significantly enhanced TNFγ and IFNγ production; also recorded: reversed the suppressive effects of the tumor microenvironment | Suppression induced by glioma-derived exosomes [2]: partially reversed the suppression induced by exosomes | IFN-γ production of OT-I CD8 T-cells in response to OVA ([3]; trans-well with GL261 cells): blocked both the expansion of MDSCs as well as the production of IFN-γ | Expansion of CD11b+Gr1+ MDSC induced by GL261 cells ([3]; trans-well, 5 days): blocked both the expansion of MDSCs
